# Article PMC7553946, “Soticlestat, a novel cholesterol 24-hydroxylase inhibitor shows a therapeutic potential for neural hyperexcitation in mice” (Scientific Reports, 2020)
# Legend:
# [1] = biological target: T1, Peptidase, Metalloproteinase, Neutral Endopeptidase (Homo sapiens, UniProt P08473); assay: biochemical; design: enzyme inhibition panel, single concentration; details: read-out: Inhibition (%)
# T1 construct: gene MME
# Excerpt: (§1) Soticlestat (Supplementary Fig. S1) was discovered as a result of an iterative medicinal chemistry effort following high-throughput screening of an in vitro enzyme assay (Fig. 1A,B).
# Cyclooxygenase (COX-1) = biological target: T2, Cyclooxygenase (COX-1) (Homo sapiens, UniProt P23219); assay: biochemical; design: enzyme inhibition panel, single concentration; details: read-out: Inhibition (%)
# T2 construct: gene PTGS1
# Excerpt: as §1
# MAO A = biological target: T3, MAO A (Homo sapiens, UniProt P21397); assay: biochemical; design: enzyme inhibition panel, single concentration; details: read-out: Inhibition (%)
# T3 construct: gene MAOA
# Excerpt: as §1
# Cyclooxygenase (COX-2) = biological target: T4, Cyclooxygenase (COX-2) (Homo sapiens, UniProt P35354); assay: biochemical; design: enzyme inhibition panel, single concentration; details: read-out: Inhibition (%)
# T4 construct: gene PTGS2
# Excerpt: as §1
# [2] = biological target: T5, Cholinesterase, Acetyl, ACES (Homo sapiens, UniProt P22303); assay: biochemical; design: enzyme inhibition panel, single concentration; details: read-out: Inhibition (%)
# T5 construct: gene ACHE
# Excerpt: as §1
# Phosphodiesterase 5 = biological target: T6, Phosphodiesterase 5 (Homo sapiens, UniProt O76074); assay: biochemical; design: enzyme inhibition panel, single concentration; details: read-out: Inhibition (%)
# T6 construct: gene PDE5A
# Excerpt: as §1
# MAO B = biological target: T7, MAO B (Homo sapiens, UniProt P27338); assay: biochemical; design: enzyme inhibition panel, single concentration; details: read-out: Inhibition (%)
# T7 construct: gene MAOB
# Excerpt: as §1
# [3] = biological target: cholesterol 24-hydroxylase (CH24H, CYP46A1) (Homo sapiens, UniProt Q9Y6A2); assay: […]cholesterol 24-hydroxylation assay by TLC with lysate of CH24H-expressing cells; format: biochemical
# Muscarinic M2 = biological target: T8, Muscarinic M2 (Homo sapiens, UniProt P08172); assay: biochemical; design: radioligand displacement binding panel of CNS receptors and transporters, single concentration; details: read-out: Inhibition (%)
# T8 construct: gene CHRM2
# Excerpt: as §1
# Opiate κ (OP2, KOP) = biological target: T9, Opiate κ (OP2, KOP) (Homo sapiens, UniProt P41145); assay: biochemical; design: radioligand displacement binding panel of CNS receptors and transporters, single concentration; details: read-out: Inhibition (%)
# T9 construct: gene OPRK1
# Excerpt: as §1
# Dopamine D1 = biological target: T10, Dopamine D1 (Homo sapiens, UniProt P21728); assay: biochemical; design: radioligand displacement binding panel of CNS receptors and transporters, single concentration; details: read-out: Inhibition (%)
# T10 construct: gene DRD1
# Excerpt: as §1
# GABA B1A = biological target: T11, GABA B1A (Homo sapiens, UniProt Q9UBS5); assay: biochemical; design: radioligand displacement binding panel of CNS receptors and transporters, single concentration; details: read-out: Inhibition (%)
# T11 construct: gene GABBR1; isoform 1A
# Excerpt: as §1
# Muscarinic M3 = biological target: T12, Muscarinic M3 (Homo sapiens, UniProt P20309); assay: biochemical; design: radioligand displacement binding panel of CNS receptors and transporters, single concentration; details: read-out: Inhibition (%)
# T12 construct: gene CHRM3
# Excerpt: as §1
# Adrenergic β1 = biological target: T13, Adrenergic β1 (Homo sapiens, UniProt P08588); assay: biochemical; design: radioligand displacement binding panel of CNS receptors and transporters, single concentration; details: read-out: Inhibition (%)
# T13 construct: gene ADRB1
# Excerpt: as §1
# Dopamine D4.2 = biological target: T14, Dopamine D4.2 (Homo sapiens, UniProt P21917); assay: biochemical; design: radioligand displacement binding panel of CNS receptors and transporters, single concentration; details: read-out: Inhibition (%)
# T14 construct: gene DRD4; D4.2 repeat variant
# Excerpt: as §1
# Cannabinoid CB1 = biological target: T15, Cannabinoid CB1 (Homo sapiens, UniProt P21554); assay: biochemical; design: radioligand displacement binding panel of CNS receptors and transporters, single concentration; details: read-out: Inhibition (%)
# T15 construct: gene CNR1
# Excerpt: as §1
# Bradykinin B1 = biological target: T16, Bradykinin B1 (Homo sapiens, UniProt P46663); assay: biochemical; design: radioligand displacement binding panel of CNS receptors and transporters, single concentration; details: read-out: Inhibition (%)
# T16 construct: gene BDKRB1
# Excerpt: as §1
# 5-HT2B = biological target: T17, 5-HT2B (Homo sapiens, UniProt P41595); assay: biochemical; design: radioligand displacement binding panel of CNS receptors and transporters, single concentration; details: read-out: Inhibition (%)
# T17 construct: gene HTR2B
# Excerpt: as §1
# Dopamine transporter = biological target: T18, Dopamine transporter (Homo sapiens, UniProt Q01959); assay: biochemical; design: radioligand displacement binding panel of CNS receptors and transporters, single concentration; details: read-out: Inhibition (%)
# T18 construct: gene SLC6A3
# Excerpt: as §1
# Serotonin transporter = biological target: T19, Serotonin transporter (Homo sapiens, UniProt P31645); assay: biochemical; design: radioligand displacement binding panel of CNS receptors and transporters, single concentration; details: read-out: Inhibition (%)
# T19 construct: gene SLC6A4
# Excerpt: as §1
# Muscarinic M1 = biological target: T20, Muscarinic M1 (Homo sapiens, UniProt P11229); assay: biochemical; design: radioligand displacement binding panel of CNS receptors and transporters, single concentration; details: read-out: Inhibition (%)
# T20 construct: gene CHRM1
# Excerpt: as §1
# Dopamine D3 = biological target: T21, Dopamine D3 (Homo sapiens, UniProt P35462); assay: biochemical; design: radioligand displacement binding panel of CNS receptors and transporters, single concentration; details: read-out: Inhibition (%)
# T21 construct: gene DRD3
# Excerpt: as §1
# Opiate μ (OP3, MOP) = biological target: T22, Opiate μ (OP3, MOP) (Homo sapiens, UniProt P35372); assay: biochemical; design: radioligand displacement binding panel of CNS receptors and transporters, single concentration; details: read-out: Inhibition (%)
# T22 construct: gene OPRM1
# Excerpt: as §1
# Histamine H1 = biological target: T23, Histamine H1 (Homo sapiens, UniProt P35367); assay: biochemical; design: radioligand displacement binding panel of CNS receptors and transporters, single concentration; details: read-out: Inhibition (%)
# T23 construct: gene HRH1
# Excerpt: as §1
# Adrenergic β3 = biological target: T24, Adrenergic β3 (Homo sapiens, UniProt P13945); assay: biochemical; design: radioligand displacement binding panel of CNS receptors and transporters, single concentration; details: read-out: Inhibition (%)
# T24 construct: gene ADRB3
# Excerpt: as §1
# Angiotensin AT2 = biological target: T25, Angiotensin AT2 (Homo sapiens, UniProt P50052); assay: biochemical; design: radioligand displacement binding panel of CNS receptors and transporters, single concentration; details: read-out: Inhibition (%)
# T25 construct: gene AGTR2
# Excerpt: as §1
# Histamine H2 = biological target: T26, Histamine H2 (Homo sapiens, UniProt P25021); assay: biochemical; design: radioligand displacement binding panel of CNS receptors and transporters, single concentration; details: read-out: Inhibition (%)
# T26 construct: gene HRH2
# Excerpt: as §1
# [4] = biological target: T27, Norepinephrine transporter (Homo sapiens, UniProt P23975); assay: biochemical; design: radioligand displacement binding panel of CNS receptors and transporters, single concentration; details: read-out: Inhibition (%)
# T27 construct: gene SLC6A2
# Excerpt: as §1
# Adrenergic β2 = biological target: T28, Adrenergic β2 (Homo sapiens, UniProt P07550); assay: biochemical; design: radioligand displacement binding panel of CNS receptors and transporters, single concentration; details: read-out: Inhibition (%)
# T28 construct: gene ADRB2
# Excerpt: as §1
# Adenosine A2B = biological target: T29, Adenosine A2B (Homo sapiens, UniProt P29275); assay: biochemical; design: radioligand displacement binding panel of CNS receptors and transporters, single concentration; details: read-out: Inhibition (%)
# T29 construct: gene ADORA2B
# Excerpt: as §1
# Dopamine D2L = biological target: T30, Dopamine D2L (Homo sapiens, UniProt P14416); assay: biochemical; design: radioligand displacement binding panel of CNS receptors and transporters, single concentration; details: read-out: Inhibition (%)
# T30 construct: gene DRD2; long isoform
# Excerpt: as §1
# GABA B1B = biological target: T31, GABA B1B (Homo sapiens, UniProt Q9UBS5); assay: biochemical; design: radioligand displacement binding panel of CNS receptors and transporters, single concentration; details: read-out: Inhibition (%)
# T31 construct: gene GABBR1; isoform 1B
# Excerpt: as §1
# Vasopressin V1A = biological target: T32, Vasopressin V1A (Homo sapiens, UniProt P37288); assay: biochemical; design: radioligand displacement binding panel of CNS receptors and transporters, single concentration; details: read-out: Inhibition (%)
# T32 construct: gene AVPR1A
# Excerpt: as §1
# T12 sequence (P20309 whole entry): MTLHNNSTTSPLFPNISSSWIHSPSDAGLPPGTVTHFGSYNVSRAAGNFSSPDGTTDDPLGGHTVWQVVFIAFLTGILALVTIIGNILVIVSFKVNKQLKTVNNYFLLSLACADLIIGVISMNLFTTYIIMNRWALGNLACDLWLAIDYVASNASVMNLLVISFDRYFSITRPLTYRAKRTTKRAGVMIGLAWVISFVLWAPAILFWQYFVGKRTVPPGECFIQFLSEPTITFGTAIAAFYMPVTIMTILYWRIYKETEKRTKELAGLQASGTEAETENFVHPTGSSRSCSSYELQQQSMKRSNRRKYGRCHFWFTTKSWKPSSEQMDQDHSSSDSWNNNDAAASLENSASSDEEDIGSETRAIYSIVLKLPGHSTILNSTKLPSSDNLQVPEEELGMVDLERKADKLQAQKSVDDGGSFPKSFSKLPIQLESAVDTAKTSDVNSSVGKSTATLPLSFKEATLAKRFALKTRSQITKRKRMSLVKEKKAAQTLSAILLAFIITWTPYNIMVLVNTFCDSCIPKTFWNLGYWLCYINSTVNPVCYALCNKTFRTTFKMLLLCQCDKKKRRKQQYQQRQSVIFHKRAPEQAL
# Sequence of cholesterol 24-hydroxylase (CH24H, CYP46A1) (Q9Y6A2 whole entry): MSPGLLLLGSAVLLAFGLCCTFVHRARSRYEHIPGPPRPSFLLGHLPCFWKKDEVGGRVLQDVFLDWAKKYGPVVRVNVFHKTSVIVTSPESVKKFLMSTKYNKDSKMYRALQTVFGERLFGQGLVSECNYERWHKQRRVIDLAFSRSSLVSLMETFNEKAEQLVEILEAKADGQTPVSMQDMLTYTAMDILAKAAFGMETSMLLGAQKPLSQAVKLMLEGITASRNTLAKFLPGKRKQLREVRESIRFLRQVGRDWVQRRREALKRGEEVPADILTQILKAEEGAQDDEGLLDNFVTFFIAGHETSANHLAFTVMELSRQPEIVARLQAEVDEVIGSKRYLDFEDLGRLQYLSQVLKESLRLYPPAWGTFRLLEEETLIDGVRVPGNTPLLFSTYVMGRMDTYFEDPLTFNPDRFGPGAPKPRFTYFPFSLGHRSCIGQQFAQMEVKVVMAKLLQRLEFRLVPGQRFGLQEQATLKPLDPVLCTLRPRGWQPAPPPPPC
# T8 sequence (P08172 whole entry): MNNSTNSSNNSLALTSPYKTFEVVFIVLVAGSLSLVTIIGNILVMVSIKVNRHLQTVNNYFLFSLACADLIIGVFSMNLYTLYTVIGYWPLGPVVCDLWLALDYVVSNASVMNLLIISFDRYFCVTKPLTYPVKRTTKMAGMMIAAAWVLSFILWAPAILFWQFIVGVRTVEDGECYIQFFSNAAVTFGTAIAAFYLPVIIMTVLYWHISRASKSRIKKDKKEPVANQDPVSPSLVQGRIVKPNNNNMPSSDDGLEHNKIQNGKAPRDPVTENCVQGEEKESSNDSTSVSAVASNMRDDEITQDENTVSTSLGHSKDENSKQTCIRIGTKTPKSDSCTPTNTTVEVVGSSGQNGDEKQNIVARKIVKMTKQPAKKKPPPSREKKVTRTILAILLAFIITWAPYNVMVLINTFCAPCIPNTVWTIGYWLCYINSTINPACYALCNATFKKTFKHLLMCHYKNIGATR
# T27 sequence (P23975 whole entry): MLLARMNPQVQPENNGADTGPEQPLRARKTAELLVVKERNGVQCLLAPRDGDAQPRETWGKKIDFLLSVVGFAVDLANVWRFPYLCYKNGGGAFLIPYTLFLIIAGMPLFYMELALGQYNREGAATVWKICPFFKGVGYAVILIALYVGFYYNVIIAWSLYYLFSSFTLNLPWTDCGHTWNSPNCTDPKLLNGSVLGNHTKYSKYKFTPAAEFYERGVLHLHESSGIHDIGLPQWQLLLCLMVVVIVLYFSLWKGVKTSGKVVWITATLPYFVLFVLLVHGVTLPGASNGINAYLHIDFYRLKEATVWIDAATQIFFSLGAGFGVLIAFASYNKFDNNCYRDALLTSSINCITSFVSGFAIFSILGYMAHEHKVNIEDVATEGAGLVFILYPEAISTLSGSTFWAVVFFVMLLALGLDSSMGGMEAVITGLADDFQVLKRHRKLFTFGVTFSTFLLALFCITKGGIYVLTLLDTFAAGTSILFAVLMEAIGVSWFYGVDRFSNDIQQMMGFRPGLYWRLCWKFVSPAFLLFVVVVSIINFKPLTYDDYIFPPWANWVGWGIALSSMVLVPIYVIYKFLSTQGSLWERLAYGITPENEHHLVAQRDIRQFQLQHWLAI
# T16 sequence (P46663 whole entry): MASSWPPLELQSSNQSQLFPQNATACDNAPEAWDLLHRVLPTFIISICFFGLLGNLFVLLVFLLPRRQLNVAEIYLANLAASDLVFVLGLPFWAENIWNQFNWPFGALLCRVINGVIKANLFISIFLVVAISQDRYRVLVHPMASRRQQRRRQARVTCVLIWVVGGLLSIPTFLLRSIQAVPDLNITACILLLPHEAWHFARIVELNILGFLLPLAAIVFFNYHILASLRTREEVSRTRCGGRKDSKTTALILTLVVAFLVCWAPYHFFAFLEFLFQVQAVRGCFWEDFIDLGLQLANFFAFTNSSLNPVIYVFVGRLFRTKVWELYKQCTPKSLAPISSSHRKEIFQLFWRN
# T19 sequence (P31645 whole entry): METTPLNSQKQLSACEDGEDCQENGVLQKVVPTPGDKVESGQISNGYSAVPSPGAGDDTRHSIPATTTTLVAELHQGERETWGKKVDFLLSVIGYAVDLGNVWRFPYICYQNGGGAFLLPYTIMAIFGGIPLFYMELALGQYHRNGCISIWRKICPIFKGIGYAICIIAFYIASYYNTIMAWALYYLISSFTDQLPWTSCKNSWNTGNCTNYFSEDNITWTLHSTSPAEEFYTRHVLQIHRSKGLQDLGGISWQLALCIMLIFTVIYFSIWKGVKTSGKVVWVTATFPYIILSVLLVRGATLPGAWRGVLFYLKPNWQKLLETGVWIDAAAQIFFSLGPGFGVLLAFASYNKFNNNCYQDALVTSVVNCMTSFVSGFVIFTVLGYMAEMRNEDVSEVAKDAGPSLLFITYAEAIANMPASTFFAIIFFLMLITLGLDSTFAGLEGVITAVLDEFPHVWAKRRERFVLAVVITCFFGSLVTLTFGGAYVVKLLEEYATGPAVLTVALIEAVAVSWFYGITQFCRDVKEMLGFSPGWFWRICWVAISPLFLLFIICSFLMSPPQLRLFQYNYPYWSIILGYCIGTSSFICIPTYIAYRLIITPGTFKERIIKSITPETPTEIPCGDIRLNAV
# T10 sequence (P21728 whole entry): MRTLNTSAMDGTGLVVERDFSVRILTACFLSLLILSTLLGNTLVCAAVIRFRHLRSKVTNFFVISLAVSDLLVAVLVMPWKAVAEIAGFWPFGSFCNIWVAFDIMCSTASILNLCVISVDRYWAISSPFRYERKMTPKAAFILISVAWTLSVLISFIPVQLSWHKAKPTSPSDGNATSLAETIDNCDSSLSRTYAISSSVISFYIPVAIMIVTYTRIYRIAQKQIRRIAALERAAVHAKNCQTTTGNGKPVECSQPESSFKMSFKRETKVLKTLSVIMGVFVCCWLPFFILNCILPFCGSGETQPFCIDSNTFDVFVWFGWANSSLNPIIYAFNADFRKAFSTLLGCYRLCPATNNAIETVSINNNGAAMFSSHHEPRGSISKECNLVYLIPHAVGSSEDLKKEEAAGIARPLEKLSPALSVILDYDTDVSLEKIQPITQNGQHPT
# T25 sequence (P50052 whole entry): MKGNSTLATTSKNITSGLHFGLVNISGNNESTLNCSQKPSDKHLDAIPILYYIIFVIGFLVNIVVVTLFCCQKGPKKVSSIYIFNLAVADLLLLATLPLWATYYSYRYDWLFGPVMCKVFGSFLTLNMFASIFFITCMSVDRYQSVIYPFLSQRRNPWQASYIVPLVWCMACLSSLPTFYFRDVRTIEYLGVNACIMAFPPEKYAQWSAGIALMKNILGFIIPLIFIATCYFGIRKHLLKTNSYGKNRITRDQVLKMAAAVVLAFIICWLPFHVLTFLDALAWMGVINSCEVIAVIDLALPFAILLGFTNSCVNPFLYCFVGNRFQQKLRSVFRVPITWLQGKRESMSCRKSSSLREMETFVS
# T17 sequence (P41595 whole entry): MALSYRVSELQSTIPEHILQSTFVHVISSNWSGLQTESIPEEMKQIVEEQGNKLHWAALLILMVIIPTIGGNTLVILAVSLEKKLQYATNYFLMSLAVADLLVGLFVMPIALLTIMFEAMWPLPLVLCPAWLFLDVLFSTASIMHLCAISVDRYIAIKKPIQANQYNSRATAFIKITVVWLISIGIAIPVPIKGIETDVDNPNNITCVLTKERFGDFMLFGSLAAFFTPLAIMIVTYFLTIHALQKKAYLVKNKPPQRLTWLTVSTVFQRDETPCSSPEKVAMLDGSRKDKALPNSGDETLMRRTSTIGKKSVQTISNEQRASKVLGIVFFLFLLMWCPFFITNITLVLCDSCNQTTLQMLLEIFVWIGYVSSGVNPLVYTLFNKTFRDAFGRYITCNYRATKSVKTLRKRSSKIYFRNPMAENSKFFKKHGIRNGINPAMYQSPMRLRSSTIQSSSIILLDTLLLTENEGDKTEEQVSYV
# T9 sequence (P41145 whole entry): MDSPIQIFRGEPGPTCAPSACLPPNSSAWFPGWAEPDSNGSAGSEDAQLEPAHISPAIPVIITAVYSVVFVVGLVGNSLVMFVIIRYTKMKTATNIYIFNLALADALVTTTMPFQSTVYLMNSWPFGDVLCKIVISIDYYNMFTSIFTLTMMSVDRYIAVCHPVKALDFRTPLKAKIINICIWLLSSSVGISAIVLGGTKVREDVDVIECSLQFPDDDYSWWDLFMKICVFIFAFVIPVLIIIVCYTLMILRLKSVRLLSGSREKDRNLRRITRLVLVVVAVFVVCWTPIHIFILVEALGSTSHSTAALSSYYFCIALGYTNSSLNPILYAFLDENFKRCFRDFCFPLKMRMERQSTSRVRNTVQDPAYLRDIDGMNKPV
compound,measurement,setting,value
"O=C(c1cccnc1-c1ccncc1)N1CCC(O)(Cc2ccccc2)CC1 [soticlestat, (4-benzyl-4-hydroxypiperidin-1-yl)(2,4′-bipyridin-3-yl) methanone]",inhibition at 10 µM,[1],-4%
same,inhibition at 10 µM,Cyclooxygenase (COX-1),-14%
same,inhibition at 10 µM,MAO A,1%
same,inhibition at 10 µM,Cyclooxygenase (COX-2),4%
same,inhibition at 10 µM,[2],0%
same,inhibition at 10 µM,Phosphodiesterase 5,-2%
same,inhibition at 10 µM,MAO B,0%
same,IC50,[3],4.5 nM
same,inhibition at 10 µM,Muscarinic M2,1%
same,inhibition at 10 µM,"Opiate κ (OP2, KOP)",-1%
same,inhibition at 10 µM,Dopamine D1,5%
same,inhibition at 10 µM,GABA B1A,6%
same,inhibition at 10 µM,Muscarinic M3,12%
same,inhibition at 10 µM,Adrenergic β1,-4%
same,inhibition at 10 µM,Dopamine D4.2,0%
same,inhibition at 10 µM,Cannabinoid CB1,-5%
same,inhibition at 10 µM,Bradykinin B1,13%
same,inhibition at 10 µM,5-HT2B,5%
same,inhibition at 10 µM,Dopamine transporter,0%
same,inhibition at 10 µM,Serotonin transporter,6%
same,inhibition at 10 µM,Muscarinic M1,7%
same,inhibition at 10 µM,Dopamine D3,5%
same,inhibition at 10 µM,"Opiate μ (OP3, MOP)",-1%
same,inhibition at 10 µM,Histamine H1,-2%
same,inhibition at 10 µM,Adrenergic β3,-7%
same,inhibition at 10 µM,Angiotensin AT2,-10%
same,inhibition at 10 µM,Histamine H2,5%
same,inhibition at 10 µM,[4],-1%
same,inhibition at 10 µM,Adrenergic β2,6%
same,inhibition at 10 µM,Adenosine A2B,20%
same,inhibition at 10 µM,Dopamine D2L,15%
same,inhibition at 10 µM,GABA B1B,8%
same,inhibition at 10 µM,Vasopressin V1A,-11%
